According to PubChem BioAssay AID1963439 (Molecular Pharmacology Branch, DTP, NCI, 2024):

Tested on: NCI-H196 complex spheroids with HUVEC/MSC, growth % T/C
Assay: Anticancer human tumor NCI-H196 cell line growth inhibition [Asc];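 further: spheroids exposed to compound for 7 days before measurement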;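 on viability, T/C: 100% = DMSO vehicle control wells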
Settings: for IC50: curve of first compound; for viability, T/C: stronger effect = lower value
How it was run: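 Tumor cells were grown as complex spheroids with human endothelial cells (HUVEC) and human mesenchymal stem cells as stroma. Agents were tested alone and in combination, in half-log steps down from the clinical Cmax, or from 10 microM where Cmax was unknown.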

[1] = second compound 0.1 µM, first compound 0.0316 µM
[2] = second compound 0.1 µM, first compound 0.1 µM
[3] = second compound 0.1 µM, first compound 0.316 µM
[4] = second compound 0.1 µM, first compound 1 µM
[5] = second compound 0.1 µM, first compound 3.16 µM
[6] = second compound 0.1 µM, first compound 10 µM
[7] = second compound 0.316 µM, first compound 0.0316 µM
[8] = second compound 0.316 µM, first compound 0.1 µM
[9] = second compound 0.316 µM, first compound 0.316 µM
[10] = second compound 0.316 µM, first compound 1 µM
[11] = second compound 0.316 µM, first compound 3.16 µM
[12] = second compound 0.316 µM, first compound 10 µM
[13] = second compound 1 µM, first compound 0.0316 µM
[14] = second compound 1 µM, first compound 0.1 µM
[15] = second compound 1 µM, first compound 0.316 µM
[16] = second compound 1 µM, first compound 1 µM
[17] = second compound 1 µM, first compound 3.16 µM
[18] = second compound 1 µM, first compound 10 µM
[19] = second compound 3.16 µM, first compound 0.0316 µM
[20] = second compound 3.16 µM, first compound 0.1 µM
[21] = second compound 3.16 µM, first compound 0.316 µM
[22] = second compound 3.16 µM, first compound 1 µM
[23] = second compound 3.16 µM, first compound 3.16 µM
[24] = second compound 3.16 µM, first compound 10 µM
[25] = second compound 10 µM, first compound 0.0316 µM
[26] = second compound 10 µM, first compound 0.1 µM
[27] = second compound 10 µM, first compound 0.316 µM
[28] = second compound 10 µM, first compound 1 µM
[29] = second compound 10 µM, first compound 3.16 µM
[30] = second compound 10 µM, first compound 10 µM

C=C(F)C(=O)N1CCN(c2nc(OCC3CCCN3C)nc3c2CCN(c2cccc4cccc(Cl)c24)C3)CC1CC#N (stereo not given) + Cc1c(S(C)(=O)=O)c(-c2cc(F)cc(N3CCN(c4ccc(NS(=O)(=O)c5ccc(NC(CCN6CCC(C(=O)OCCCP(=O)(O)O)CC6)CSc6ccccc6)c(S(=O)(=O)C(F)(F)F)c5)cc4)CC3)c2)c(-c2ccc(Cl)cc2)n1C(C)C
IC50 (second compound 0.1 µM): > 10 µM | IC50 (second compound 0.316 µM): > 10 µM | IC50 (second compound 1 µM): 5.96 µM | IC50 (second compound 3.16 µM): 5.08 µM | IC50 (second compound 10 µM): 4.48 µM | viability, T/C [1]: 95.8% | viability, T/C [2]: 94.5% | viability, T/C [3]: 92% | viability, T/C [4]: 99.9% | viability, T/C [5]: 107% | viability, T/C [6]: 74.8% | viability, T/C [7]: 87.6% | viability, T/C [8]: 95% | viability, T/C [9]: 99.3% | viability, T/C [10]: 86.4% | viability, T/C [11]: 87.4% | viability, T/C [12]: 83.5% | viability, T/C [13]: 96.6% | viability, T/C [14]: 81.3% | viability, T/C [15]: 93.5% | viability, T/C [16]: 74.9% | viability, T/C [17]: 82% | viability, T/C [18]: 25.5% | viability, T/C [19]: 82.7% | viability, T/C [20]: 80.6% | viability, T/C [21]: 78.5% | viability, T/C [22]: 83.7% | viability, T/C [23]: 85.5% | viability, T/C [24]: 4.09% | viability, T/C [25]: 75.5% | viability, T/C [26]: 70.1% | viability, T/C [27]: 70.4% | viability, T/C [28]: 67.1% | viability, T/C [29]: 68.5% | viability, T/C [30]: 8.1%

C=CC(=O)N1CCN(c2nc(=O)n(-c3c(C)ccnc3C(C)C)c3nc(-c4c(O)cccc4F)c(F)cc23)C(C)C1 (stereo not given) + Cc1c(S(C)(=O)=O)c(-c2cc(F)cc(N3CCN(c4ccc(NS(=O)(=O)c5ccc(NC(CCN6CCC(C(=O)OCCCP(=O)(O)O)CC6)CSc6ccccc6)c(S(=O)(=O)C(F)(F)F)c5)cc4)CC3)c2)c(-c2ccc(Cl)cc2)n1C(C)C
IC50 (second compound 0.1 µM): > 10 µM | IC50 (second compound 0.316 µM): > 10 µM | IC50 (second compound 1 µM): > 10 µM | IC50 (second compound 3.16 µM): > 10 µM | IC50 (second compound 10 µM): > 10 µM | viability, T/C [1]: 103% | viability, T/C [2]: 93.2% | viability, T/C [3]: 96.1% | viability, T/C [4]: 102% | viability, T/C [5]: 96% | viability, T/C [6]: 97.9% | viability, T/C [7]: 92.1% | viability, T/C [8]: 97.4% | viability, T/C [9]: 96% | viability, T/C [10]: 109% | viability, T/C [11]: 104% | viability, T/C [12]: 96.5% | viability, T/C [13]: 95.5% | viability, T/C [14]: 92.4% | viability, T/C [15]: 93.9% | viability, T/C [16]: 88% | viability, T/C [17]: 110% | viability, T/C [18]: 85.7% | viability, T/C [19]: 87.9% | viability, T/C [20]: 87.1% | viability, T/C [21]: 83.8% | viability, T/C [22]: 87.8% | viability, T/C [23]: 84.9% | viability, T/C [24]: 80% | viability, T/C [25]: 73.9% | viability, T/C [26]: 79.6% | viability, T/C [27]: 79.8% | viability, T/C [28]: 75.3% | viability, T/C [29]: 78.1% | viability, T/C [30]: 66.8%

CCN1C(C(=O)NC23CCC(C(=O)O)(CC2)CC3)C(c2cccc(Cl)c2F)C2(C(=O)Nc3cc(Cl)ccc32)C12CCCCC2 (stereo not given) + Cc1c(S(C)(=O)=O)c(-c2cc(F)cc(N3CCN(c4ccc(NS(=O)(=O)c5ccc(NC(CCN6CCC(C(=O)OCCCP(=O)(O)O)CC6)CSc6ccccc6)c(S(=O)(=O)C(F)(F)F)c5)cc4)CC3)c2)c(-c2ccc(Cl)cc2)n1C(C)C
IC50 (second compound 0.1 µM): > 3 µM | IC50 (second compound 0.316 µM): > 3 µM | IC50 (second compound 1 µM): > 3 µM | IC50 (second compound 3.16 µM): 2.85 µM | IC50 (second compound 10 µM): 1.66 µM | viability, T/C (second compound 0.1 µM, first compound 0.00949 µM): 89.3% | viability, T/C (second compound 0.1 µM, first compound 0.03 µM): 104% | viability, T/C (second compound 0.1 µM, first compound 0.0949 µM): 91.2% | viability, T/C (second compound 0.1 µM, first compound 0.3 µM): 91.5% | viability, T/C (second compound 0.1 µM, first compound 0.949 µM): 92.2% | viability, T/C (second compound 0.1 µM, first compound 3 µM): 86.4% | viability, T/C (second compound 0.316 µM, first compound 0.00949 µM): 89.6% | viability, T/C (second compound 0.316 µM, first compound 0.03 µM): 89.7% | viability, T/C (second compound 0.316 µM, first compound 0.0949 µM): 95.5% | viability, T/C (second compound 0.316 µM, first compound 0.3 µM): 85.3% | viability, T/C (second compound 0.316 µM, first compound 0.949 µM): 88.3% | viability, T/C (second compound 0.316 µM, first compound 3 µM): 69.4% | viability, T/C (second compound 1 µM, first compound 0.00949 µM): 84.3% | viability, T/C (second compound 1 µM, first compound 0.03 µM): 83% | viability, T/C (second compound 1 µM, first compound 0.0949 µM): 87.5% | viability, T/C (second compound 1 µM, first compound 0.3 µM): 80.8% | viability, T/C (second compound 1 µM, first compound 0.949 µM): 78.9% | viability, T/C (second compound 1 µM, first compound 3 µM): 62.6% | viability, T/C (second compound 3.16 µM, first compound 0.00949 µM): 77.9% | viability, T/C (second compound 3.16 µM, first compound 0.03 µM): 82.5% | viability, T/C (second compound 3.16 µM, first compound 0.0949 µM): 72.5% | viability, T/C (second compound 3.16 µM, first compound 0.3 µM): 72.3% | viability, T/C (second compound 3.16 µM, first compound 0.949 µM): 66.2% | viability, T/C (second compound 3.16 µM, first compound 3 µM): 48.7% | viability, T/C (second compound 10 µM, first compound 0.00949 µM): 70.2% | viability, T/C (second compound 10 µM, first compound 0.03 µM): 79.1% | viability, T/C (second compound 10 µM, first compound 0.0949 µM): 70.1% | viability, T/C (second compound 10 µM, first compound 0.3 µM): 73.2% | viability, T/C (second compound 10 µM, first compound 0.949 µM): 59% | viability, T/C (second compound 10 µM, first compound 3 µM): 38.6%
